The values that follow are results of earlier work, collected in PubChem BioAssay AID1259409 (Chemical Carcinogenesis Research Information System (CCRIS), 2018).

Structures are written as SMILES.

The data set concerns rodent chemically induced tumor inhibition, incidence and multiplicity. Kind of data set: CCRIS tumor inhibitor studies. The conditions noted are these: for outcome: Carcinogen: 7,12-Dimethylbenz(a)anthracene, Route [Inhibitor]: Oral (gavage), Species: Rat, Strain/Sex: (16/Group), Target Tissue: Type of Lesion: Mammary Gland: tumor, Dose [Carcinogen]: 100 mg/kg once at 50 days of age, Promoter: None.

Consider `NC(C[Se][Se]CC(N)C(=O)O)C(=O)O` (configuration not stated), for which the “tumour outcome (control, treated, inhibition, significance)” value (Carcinogen: 7,12-DIMETHYLBENZ[A]ANTHRACENE, 57-97-6, Dose [Inhibitor]: 0, 0.2 PPM IN DIET BEGINNING 3 D PRIOR TO CARCINOGEN DOSE AND CONTINUING FOR 8 MO (STUDY DURATION: 8 MO), Route [Inhibitor]: ORAL, Species: MOUSE, Strain/Sex: BALB/FEMALE, Target Tissue: Type of Lesion: MAMMARY GLAND: ADENOCARCINOMA, Dose [Carcinogen]: 1 MG/WK FOR 6 WK, Promoter: NONE USED) is 12/31 (39%), 8/28 (29%), 26%, not calculated and the “tumour outcome (control, treated, inhibition, significance)” value (Carcinogen: 7,12-DIMETHYLBENZ[A]ANTHRACENE, 57-97-6, Dose [Inhibitor]: 0, 2 PPM IN DIET BEGINNING 3 D PRIOR TO CARCINOGEN DOSE AND CONTINUING FOR 8 MO (STUDY DURATION: 8 MO), Route [Inhibitor]: ORAL, Species: MOUSE, Strain/Sex: BALB/FEMALE, Target Tissue: Type of Lesion: MAMMARY GLAND: ADENOCARCINOMA, Dose [Carcinogen]: 1 MG/WK FOR 6 WK, Promoter: NONE USED) was 12/31 (39%), 7/24 (29%), 26%, not calculated.

With `CC1=C(/C=C/C(C)=C/C=C/C(C)=C/C(=O)Nc2ccc(O[C@@H]3O[C@H](C(=O)O)[C@@H](O)C(O)C3O)cc2)C(C)(C)CCC1` (some centres not stated), where the note is “Carcinogen: 7,12-DIMETHYLBENZ[A]ANTHRACENE, 57-97-6, Dose [Inhibitor]: 0, 1 MMOL/KG IN DIET FOR THE DURATION OF STUDY BEGINNING 1 WK PRIOR TO CARCINOGEN DOSE (STUDY DURATION: 105 WK), Route [Inhibitor]: ORAL, Species: RAT, Strain/Sex: SPRAGUE-DAWLEY/FEMALE, Target Tissue: Type of Lesion: MAMMARY GLAND: TUMOR, Dose [Carcinogen]: 15 MG IN 1 ML SESAME OIL ONCE, Promoter: NONE USED”, the “tumour outcome (control, treated, inhibition, significance)” value is recorded as 88%, 36%, 59%, not significant.

Turning to `NCCCCN`, the “tumour outcome (control, treated, inhibition, significance)” value (Carcinogen: AZOXYMETHANE, 25843-45-2, Dose [Inhibitor]: 0, 300 UMOL/KG IN 0.9% SALINE 1/2 D FOR THE DURATION OF STUDY (STUDY DURATION: 40 WK), Route [Inhibitor]: INTRAPERITONEAL, Species: RAT, Strain/Sex: WISTAR/MALE, Target Tissue: Type of Lesion: COLON: TUMOR, Dose [Carcinogen]: 7.4 MG/KG IN 0.9% SALINE 1/WK FOR 10 WK, Promoter: NONE USED) is recorded as 16/20 (80%), 6/18 (33%), 59%, p<0.01.

Take `CCCCOCCOCCOCc1cc2c(cc1CCC)OCO2`: the “tumour outcome (control, treated, inhibition, significance)” value (Carcinogen: N-NITROSODIETHYLAMINE, 55-18-5, Dose [Inhibitor]: 400 MG/KG IN 0.2 ML SESAME OIL (TOTAL VOL 0.1 ML) 2 HR PRIOR TO EACH CARCINOGEN DOSE (STUDY DURATION: 21 WK), Route [Inhibitor]: SUBCUTANEOUS, Species: HAMSTER, Strain/Sex: SYRIAN/MALE, Target Tissue: Type of Lesion: LUNG: ADENOMA, ADENOCARCINOMA, Dose [Carcinogen]: 17.8 MG/KG IN 0.9% SALINE (TOTAL VOL 0.1 ML) 2/WK FOR 20 WK, Promoter: NONE USED) is 6/10 (60%), 0/10 (0%), 100%, p<0.01.

For the compound `C=CC(C)(O)CCC=C(C)C` (configuration not stated), the “tumour outcome (control, treated, inhibition, significance)” value is 50%, 26%, 48%, not significant (Carcinogen: AZOXYMETHANE, 25843-45-2, Dose [Inhibitor]: 0, 5 MG/G IN DIET FOR 22 WK BEGINNING 3 D POST LAST CARCINOGEN DOSE (STUDY DURATION: 25 WK), Route [Inhibitor]: ORAL, Species: RAT, Strain/Sex: F344/MALE, Target Tissue: Type of Lesion: DUODENUM: ADENOCARCINOMA, Dose [Carcinogen]: 15 MG/KG BW 2/WK FOR 3 WK, Promoter: NONE USED) and 82%, 79%, 4%, not significant (Carcinogen: AZOXYMETHANE, 25843-45-2, Dose [Inhibitor]: 0, 5 MG/G IN DIET FOR 22 WK BEGINNING 3 D POST LAST CARCINOGEN DOSE (STUDY DURATION: 25 WK), Route [Inhibitor]: ORAL, Species: RAT, Strain/Sex: F344/MALE, Target Tissue: Type of Lesion: LARGE BOWEL: ADENOMATOUS POLYP, Dose [Carcinogen]: 15 MG/KG BW 2/WK FOR 3 WK, Promoter: NONE USED).

In the case of `CCS(=O)(=O)c1ccc(/C=C(\C)c2ccc3c(c2)C(C)(C)CCC3(C)C)cc1`, the “tumour outcome (control, treated, inhibition, significance)” value (Carcinogen: 7,12-DIMETHYLBENZ[A]ANTHRACENE, 57-97-6, Dose [Inhibitor]: 0, 3 MG/KG/D IN FEED REDUCED AFTER 4 WK TO 2.2 MG/KG/D (STUDY DURATION: 13 WK), Route [Inhibitor]: ORAL, Species: RAT, Strain/Sex: SPRAGUE-DAWLEY/FEMALE, Target Tissue: Type of Lesion: MAMMARY GLAND: TUMOR, Dose [Carcinogen]: 15 MG IN ARACHIS OIL ONCE AT 50 D OF AGE, Promoter: NONE USED) is on record as 96%, 73%, 24%, not calculated.

With `NC(=O)CC[C@H](N)C(=O)O`, the outcome (57-97-6, Dose [Inhibitor]: 0, 1 g/kg/day for 4 wks, study duration 4 wks) is listed as 93.8%, 31.2% and the outcome (57-97-6, Dose [Inhibitor]: 0, 1 g/kg/day for 11 wks, study duration 11 wks) is reported as 93.8%, 43.7%.

Regarding `C=CC[C@@H]1/C=C(\C)C[C@H](C)C[C@H](OC)[C@H]2O[C@@](O)(C(=O)C(=O)N3CCCC[C@H]3C(=O)O[C@H](/C(C)=C/[C@@H]3CC[C@@H](O)[C@H](OC)C3)[C@H](C)[C@@H](O)CC1=O)[C@H](C)C[C@@H]2OC`, the “tumour outcome (control, treated, inhibition, significance)” value (Carcinogen: 7,12-DIMETHYLBENZ[A]ANTHRACENE : 57-97-6, Dose [Inhibitor]: 0, 1 UMOL APPLIED 5 MIN PRIOR TO EACH PROMOTER DOSE FOR 22 WK BEGINNING 10 D POST CARCINOGEN DOSE (STUDY DURATION: 23 WK, Route [Inhibitor]: DERMAL, Species: MOUSE, Strain/Sex: CD-1/FEMALE, Target Tissue: Type of Lesion: SKIN: PAPILLOMA, Dose [Carcinogen]: 200 NMOL ONCE, Promoter: 12-O-TETRADECANOYLPHORBOL-13-ACETATE, 16561-29-8) is listed as 100%, 15%, 85%, not calculated and the “tumour outcome (control, treated, inhibition, significance)” value (Carcinogen: 7,12-DIMETHYLBENZ[A]ANTHRACENE, 57-97-6, Dose [Inhibitor]: 0, 0.1 UMOL APPLIED 15 MIN PRIOR TO EACH PROMOTER DOSE FOR 22 WK BEGINNING 10 D POST CARCINOGEN DOSE (STUDY DURATION: 23, Route [Inhibitor]: DERMAL, Species: (20,20)/(20,20), Strain/Sex: CD-1/FEMALE, Target Tissue: Type of Lesion: SKIN: PAPILLOMA, Dose [Carcinogen]: 200 NMOL ONCE, Promoter: 12-O-TETRADECANOYLPHORBOL-13-ACETATE, 16561-29-8) was 100%, 38%, 62%, not calculated.

Take `C#CCCCc1ccccc1`: for the setting “Carcinogen: 4-(METHYLNITROSAMINO)-1-(3-PYRIDYL)-1-BUTANONE, 64091-91-4, Dose [Inhibitor]: 0, 5 UMOL IN 0.1 ML CORN OIL ONCE 2 HR PRIOR TO CARCINOGEN DOSE (STUDY DURATION: 16 WK), Route [Inhibitor]: GAVAGE, Species: MOUSE, Strain/Sex: STRAIN-A/FEMALE, Target Tissue: Type of Lesion: LUNG: ADENOMA, Dose [Carcinogen]: 10 UMOL IN 0.1 ML SALINE ONCE, Promoter: NONE USED”, the “tumour outcome (control, treated, inhibition, significance)” value is reported as 100%, 25%, 75%, p<0.01.

For `Oc1c(Cl)c(Cl)c(Cl)c(Cl)c1Cl`, the “tumour outcome (control, treated, inhibition, significance)” value by setting is: (Carcinogen: N-HYDROXY-2-ACETYLAMINOFLUORENE, 53-95-2, Dose [Inhibitor]: 0, 0.04 UMOL/G BW IN 10 µL/G BW TRIOCTANOIN ONCE 45 MIN PRIOR TO CARCINOGEN DOSE (STUDY DURATION: 10 MO), Route [Inhibitor]: INTRAPERITONEAL, Species: MOUSE, Strain/Sex: B6C3F1/MALE, Target Tissue: Type of Lesion: LIVER: HEPATOMA, Dose [Carcinogen]: 0.06 UMOL/G BW IN 5 µL/G BW OF 80% DMSO, Promoter: NONE USED) 34/34 (100%), 19/33 (58%), 42%, not calculated; (Carcinogen: N-HYDROXY-2-ACETYLAMINOFLUORENE, 53-95-2, Dose [Inhibitor]: 0, 0.04 UMOL/G BW IN 10 µL/G BW TRIOCTANOIN ONCE 45 MIN PRIOR TO CARCINOGEN DOSE (STUDY DURATION: 10 MO), Route [Inhibitor]: INTRAPERITONEAL, Species: MOUSE, Strain/Sex: B6C3F1/MALE, Target Tissue: Type of Lesion: LIVER: HEPATOMA, Dose [Carcinogen]: 0.11 UMOL/G BW IN 5 µL/G BW OF 80% DMSO, Promoter: NONE USED) 33/33 (100%), 31/37 (84%), 16%, not calculated; (Carcinogen: N-HYDROXY-2-ACETYLAMINOFLUORENE, 53-95-2, Dose [Inhibitor]: 0, 0.04 UMOL/G BW IN 10 µL/G BW TRIOCTANOIN ONCE 45 MIN PRIOR TO CARCINOGEN DOSE (STUDY DURATION: 10 MO), Route [Inhibitor]: INTRAPERITONEAL, Species: MOUSE, Strain/Sex: B6C3F1/MALE, Target Tissue: Type of Lesion: LIVER: HEPATOMA, Dose [Carcinogen]: 0.22 UMOL/G BW IN 5 µL/G BW OF 80% DMSO, Promoter: NONE USED) 39/39 (100%), 31/41 (76%), 24%, not calculated.

Regarding `COc1ccc2nc(S(=O)Cc3ncc(C)c(OC)c3C)[nH]c2c1` (configuration not stated), the “tumour outcome (control, treated, inhibition, significance)” value (Carcinogen: AZOXYMETHANE, 25843-45-2, Dose [Inhibitor]: 0, 40 UMOL/KG 1/D FOR 27 WK BEGINNING 6 WK PRIOR TO CARCINOGEN TREATMENT (STUDY DURATION: 27 WK), Route [Inhibitor]: GAVAGE, Species: RAT, Strain/Sex: SPRAGUE-DAWLEY/FEMALE, Target Tissue: Type of Lesion: COLON: TUMOR, Dose [Carcinogen]: 10 MG/KG 1/WK FOR 12 WK, Promoter: NONE USED) was 19/20 (95%), 12/19 (63%), 34%, p<0.02.
